No end group written: not given here.
B1: conventional beta-casein: conventional beta-casein fed to the second group as comparison (protein, UniProt P02666 16-224, looked up)
Beta-casein: RELEELNVPGEIVESLSSSEESITRINKKIEKFQSEEQQQTEDELQDKIHPFAQTQSLVYPFPGPIPNSLPQNIPPLTQTPVVVPPFLQPEVMGVSKVKEAMAPKHKEMPFPKYPVEPFTESQSLTLTDVENLHLPLPLLQSWMHQPHQPLPPTVMFPPQSVLSLSQSKVLPVPQKAVPYPQRDMPIQAFLLYQEPVLGPVRGPFPIIV

Experiment: Efficacy test for calcium solubilizing effect in vivo (soluble calcium in small intestine contents, atomic absorption spectrometer)
Set-up: species or system Wister Rats
Conditions: for Calcium concentration in the small intestine, Lower part / Calcium concentration in the small intestine, Total / Calcium concentration in the small intestine, Upper part: measured one hour after feeding, mean ± standard deviation
Procedure: Efficacy test for calcium solubilizing effect In vivo
Forty Wister Rats weighing about 120 g on an average were supplied with a controlled diet consisting of 24 wt % of crude proteins, 5 wt % of crude fats, 60 wt % of starches, 5 wt % of crude fibers, 5 wt % of minerals and 1 wt % of vitamins for a week and then starved for 24 hours. The rats were divided into 4 groups, each group including 10 rats.
Rats of the first group were supplied with a controlled diet including 10 wt % of the beta-casein H for 1.5 hours.
Rats of the second group were supplied with a controlled diet including 10 wt % of a conventional beta-casein for 1.5 hours.
Rats of the third group were supplied with a controlled diet including 1 wt % of the CPP in accordance with the present invention for 1.5 hours.
Rats of the fourth group were supplied with a controlled diet including 1 wt % of the conventional CPP for 1.5 hours.
All rats were allowed to freely have the controlled diets as much as they can. One hour after the completion of the above feeding, all rats were anesthetized, and the small intestines were excised therefrom. The small intestines were washed with a saline solution and then divided into two parts, i.e, the upper part and the lower part.
Thereafter, the contents in the small intestine were isolated, homogenized and centrifugated. A calcium in the supernant was measured three times by an atomic absorption spectrometer (Perkin Elmer Co.).

[1] = CPP feed, 3rd Group (inventive CPP) over 4th Group (conventional CPP)
[2] = CPP feed, controlled diet including 1 wt % CPP for 1.5 hours
[3] = casein feed, controlled diet including 10 wt % casein for 1.5 hours

Molecule | Improvement (%) of calcium concentration, Lower part [1] [%] | Improvement (%) of calcium concentration, Total [1] [%] | Improvement (%) of calcium concentration, Upper part [1] [%] | Improvement (%) of calcium concentration, Total (CPP feed, 3rd Group (inventive CPP) over 4th Group (conventional CPP), listed as present CPP) [%] | Calcium concentration in the small intestine, Lower part [2] [ppm] | Calcium concentration in the small intestine, Total [2] [ppm] | Calcium concentration in the small intestine, Upper part [2] [ppm] | Calcium concentration in the small intestine, Total (CPP feed, controlled diet including 1 wt % CPP for 1.5 hours, listed as present CPP) [ppm] | Calcium concentration in the small intestine, Lower part [3] [ppm] | Calcium concentration in the small intestine, Total [3] [ppm] | Calcium concentration in the small intestine, Upper part [3] [ppm]
CPP in accordance with the present invention: casein phosphopeptide of SEQ. ID NO: 1, 28 amino acids, 25th Arg of the conventional CPP substituted by Cys (RELEELNVPGEIVESLSSSEESITCINK; also: phosphorylated, sites not given here) | 29.8 | 23.1 | 7.0 | 23 | 51.02 ± 3.1 | 68.20 ± 2.5 | 17.18 ± 1.9 | 68.20 | – | – | –
B1 | – | – | – | – | – | – | – | – | 35.11 ± 2.3 | 50.60 ± 2.0 | 15.49 ± 1.7

Reference: patent US5834427A, “Casein phosphopeptide, casein containing same and process for the preparation thereof” (Han; Sang Kee, priority 1995, dated 1998)
